Test results taken from patent US8916570B2 (The United States of America, as represented by the …, priority 2008, dated 2014).

Tests used:
[1] = molecular target: T1, human A1 adenosine receptor (Homo sapiens, UniProt P30542); assay: Radioligand binding, human A1 AR, CHO membranes (Table 1); conditions: for A1 % inhib.: species H (human), percent in parentheses, concentration not marked
T1 sequence (P30542 1-326): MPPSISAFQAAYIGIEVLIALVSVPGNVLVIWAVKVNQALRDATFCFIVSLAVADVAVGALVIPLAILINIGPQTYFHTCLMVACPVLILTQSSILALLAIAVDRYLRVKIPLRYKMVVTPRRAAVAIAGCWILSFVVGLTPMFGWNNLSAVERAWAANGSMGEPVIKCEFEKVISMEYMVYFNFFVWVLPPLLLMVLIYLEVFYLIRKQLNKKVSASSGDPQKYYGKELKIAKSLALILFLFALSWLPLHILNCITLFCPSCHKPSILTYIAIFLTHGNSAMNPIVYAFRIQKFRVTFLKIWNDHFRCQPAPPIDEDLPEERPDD

[2] = molecular target: human A2A adenosine receptor (Homo sapiens, UniProt P29274); assay: Radioligand binding, human A2A AR (Table 1); conditions: for inhibition at 10 µM: read-out: A2A % inhib.
Chain of human A2A adenosine receptor (P29274 whole entry): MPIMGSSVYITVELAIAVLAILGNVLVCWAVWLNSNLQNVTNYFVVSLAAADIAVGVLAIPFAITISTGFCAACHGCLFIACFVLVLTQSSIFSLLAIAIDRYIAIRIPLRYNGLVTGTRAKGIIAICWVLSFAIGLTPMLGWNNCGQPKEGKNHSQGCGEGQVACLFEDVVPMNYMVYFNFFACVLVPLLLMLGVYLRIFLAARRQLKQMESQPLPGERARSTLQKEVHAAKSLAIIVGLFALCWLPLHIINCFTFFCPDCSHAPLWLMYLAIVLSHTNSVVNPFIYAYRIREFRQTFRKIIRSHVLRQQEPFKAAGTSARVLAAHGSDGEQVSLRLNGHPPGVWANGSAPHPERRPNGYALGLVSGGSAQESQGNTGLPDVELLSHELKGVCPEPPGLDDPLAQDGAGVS

[3] = molecular target: mouse A2A adenosine receptor (Mus musculus, UniProt Q60613); assay: Competition radioligand binding, mouse A2A AR, HEK293 membranes (Table 1); conditions: for inhibition at 100 µM: read-out: A2A % inhib.
Chain of mouse A2A adenosine receptor (Q60613 whole entry): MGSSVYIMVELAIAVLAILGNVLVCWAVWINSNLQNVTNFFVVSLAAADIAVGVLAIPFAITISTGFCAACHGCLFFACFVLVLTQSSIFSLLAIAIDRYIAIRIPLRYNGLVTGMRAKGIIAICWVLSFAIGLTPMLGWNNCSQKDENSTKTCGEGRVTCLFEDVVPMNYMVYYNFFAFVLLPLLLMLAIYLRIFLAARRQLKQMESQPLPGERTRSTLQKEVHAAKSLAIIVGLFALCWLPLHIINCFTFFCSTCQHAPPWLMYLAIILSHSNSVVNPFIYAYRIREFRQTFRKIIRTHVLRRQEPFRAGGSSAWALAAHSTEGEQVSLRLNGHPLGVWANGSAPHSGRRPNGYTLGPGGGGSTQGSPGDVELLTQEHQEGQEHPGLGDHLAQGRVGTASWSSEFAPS

[4] = molecular target: T2, mouse A1 adenosine receptor (Mus musculus, UniProt Q60612); assay: Competition radioligand binding, mouse A1 AR, HEK293 membranes (Table 1)
T2 sequence (Q60612 1-326): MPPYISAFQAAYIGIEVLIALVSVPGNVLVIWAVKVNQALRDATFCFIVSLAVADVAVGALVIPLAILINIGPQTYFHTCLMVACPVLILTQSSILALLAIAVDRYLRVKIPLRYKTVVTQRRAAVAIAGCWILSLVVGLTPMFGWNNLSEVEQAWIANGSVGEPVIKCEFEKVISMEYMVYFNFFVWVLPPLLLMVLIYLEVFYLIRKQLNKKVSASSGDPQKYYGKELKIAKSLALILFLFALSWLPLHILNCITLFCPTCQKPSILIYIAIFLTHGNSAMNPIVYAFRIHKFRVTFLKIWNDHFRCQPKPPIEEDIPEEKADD

[5] = molecular target: T3, mouse A3 adenosine receptor (Mus musculus, UniProt Q61618); assay: Competition radioligand binding, mouse A3 AR, HEK293 membranes (Table 1); conditions: for Ki: A3 Ki, species M (mouse), [125I]I-AB-MECA; for Selectivity A1/A3: mouse
T3 sequence (Q61618 1-319): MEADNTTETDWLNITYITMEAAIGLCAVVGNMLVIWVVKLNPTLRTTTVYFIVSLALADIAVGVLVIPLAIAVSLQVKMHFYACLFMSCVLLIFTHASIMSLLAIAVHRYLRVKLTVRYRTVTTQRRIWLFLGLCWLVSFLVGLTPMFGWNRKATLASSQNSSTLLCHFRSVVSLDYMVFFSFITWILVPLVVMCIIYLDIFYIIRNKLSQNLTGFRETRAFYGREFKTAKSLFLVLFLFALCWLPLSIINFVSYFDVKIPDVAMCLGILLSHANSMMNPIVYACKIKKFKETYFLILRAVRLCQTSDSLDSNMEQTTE

[6] = molecular target: T4, human A3 adenosine receptor (Homo sapiens, UniProt P0DMS8); assay: [125I]I-AB-MECA binding, human A3 AR, CHO membranes (Table 1); conditions: for Ki: A3 Ki, species H (human); for Selectivity A1/A3: human
T4 sequence (P0DMS8 1-318): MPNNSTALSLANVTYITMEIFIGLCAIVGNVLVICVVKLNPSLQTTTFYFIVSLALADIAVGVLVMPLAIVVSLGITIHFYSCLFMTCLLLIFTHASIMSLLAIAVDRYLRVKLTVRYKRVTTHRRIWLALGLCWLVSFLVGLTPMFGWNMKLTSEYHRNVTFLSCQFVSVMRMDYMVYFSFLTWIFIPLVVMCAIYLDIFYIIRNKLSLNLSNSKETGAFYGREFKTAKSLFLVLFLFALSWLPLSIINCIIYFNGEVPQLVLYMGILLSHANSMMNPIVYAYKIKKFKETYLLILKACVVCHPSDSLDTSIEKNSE

human A3AR = molecular target: T5, human A3AR (Homo sapiens, UniProt P0DMS8); assay: Inhibition of forskolin-stimulated cyclic AMP production in AR transfected CHO cells (Table 1); format: cell-based; conditions: CHO; read-out: % Efficacy at the human A3 AR
T5 construct: expressed in transfected cells; host or cells: CHO
T5 sequence (P0DMS8 1-318): T4 sequence (P0DMS8 1-318)

Structure (SMILES)	A1 % inhib. [1]	inhibition at 10 µM [2] [%]	inhibition at 100 µM [3] [%]	Ki [4] [µM]	Ki [5] [µM]	Ki [1] [µM]	Selectivity A1/A3 [5]	Ki [6] [µM]	Ki [2] [µM]	further results
CCN1C(=CC=CC=CC2=[N+](CCCCCC(=O)NCCNC(=O)CCC#Cc3nc(NCc4cccc(Cl)c4)c4ncn(C5C(O)C(O)C6(C(=O)NC)CC56)c4n3)c3ccc(S(=O)(=O)[O-])cc3C2(C)C)C(C)(C)c2cc(S(=O)(=O)O)ccc21 (stereo not drawn) [Compound 44, (1′S,2′R,3′S,4′S,5′S)-4′-[6-(3-Chlorobenzylamino)-2-(N-Cyanine(β-aminoethylaminocarbonyl)-1-butynyl)-9-yl]-2′,3′-dihydroxybicyclo[3.1.0]hexane-1′-carboxylic acid N-methylamide]	(10 ± 4%)									
CNC(=O)C12CC1C(n1cnc3c(NCc4cccc(C#CCCCC(=O)NCCNC(C)=O)c4)nc(Cl)nc31)C(O)C2O (stereo not drawn) [Compound 11]		80	68							
CNC(=O)C12CC1C(n1cnc3c(NCc4cccc(Cl)c4)nc(C#CCCCC(=O)OC)nc31)C(O)C2O (stereo not drawn) [Compound 6, (1′S,2′R,3′S,4′S,5′S)-4′-[6-(3-Chlorobenzylamino)-2-(5-methoxycarbonyl-1-pentynyl)-9-yl]-2′,3′-dihydroxybicyclo[3.1.0]hexane-1′-carboxylic acid N-methylamide]		49	50	1.34 ± 0.33	0.00465 ± 0.00053	0.482 ± 0.023				
CNC(=O)C12CC1C(n1cnc3c(NCc4cccc(C#CCCCC(=O)NCCN)c4)nc(Cl)nc31)C(O)C2O (stereo not drawn) [Compound 10]		58	39	0.151 ± 0.018	0.0119 ± 0.0024	0.271 ± 0.023	13	0.00521		Selectivity A1/A3 [6]: 52
CNC(=O)C12CC1C(n1cnc3c(NCc4cccc(C#CCCCC(=O)O)c4)nc(Cl)nc31)C(O)C2O (stereo not drawn) [Compound 9]		14	5							
CNC(=O)C12CC1C(n1cnc3c(NCc4cccc(Cl)c4)nc(SC)nc31)C(O)C2O (stereo not drawn) [Compound 20]			32	0.0989 ± 0.0188	0.00119 ± 9e-05	0.61	83	0.0015	10	
CNC(=O)C12CC1C(n1cnc3c(NCc4cc(OC)ccc4OC)nc(I)nc31)C(O)C2O (stereo not drawn) [Compound 2, (1′S,2′R,3′S,4′S,5′S)-4′-[6-(2,5-Dimethoxybenzylamino)-2-iodopurin-9-yl]-2′,3′-dihydroxybicyclo[3.1.0]hexane-1′-carboxylic acid N-methylamide]		35	14							
CNC(=O)C12CC1C(n1cnc3c(NCc4cccc(Cl)c4)nc(C#C[Si](C)(C)C)nc31)C(O)C2O (stereo not drawn) [Compound 4, (1′S,2′R,3′S,4′S,5′S)-4′-[6-(3-Chlorobenzylamino)-2-trimethylsilylethynyl-9-yl]-2′,3′-dihydroxybicyclo[3.1.0]hexane-1′-carboxylic acid N-methylamide]		52	20	0.159 ± 0.022	0.00446 ± 0.00057	0.16 ± 0.04	35.6	0.00098 ± 0.00014		Selectivity A1/A3 [6]: 160
CNC(=O)C12CC1C(n1cnc3c(NOC)nc(Cl)nc31)C(O)C2O (stereo not drawn) [Compound 21, (1′S,2′R,3′S,4′S,5′S)-4′-[6-Methoxyamino-2-chloropurin-9-yl]-2′,3′-dihydroxybicyclo[3.1.0]hexane-1′-carboxylic acid N-methylamide]		2	2	1.16 ± 0.13	0.877 ± 0.149	0.265 ± 0.045	1.3	0.149 ± 0.015		Selectivity A1/A3 [6]: 1.8
CNC(=O)C12CC1C(n1cnc3c(NCc4cccc(Cl)c4)nc(I)nc31)C(O)C2O (stereo not drawn) [Compound 1]			40						> 10	
CNC(=O)C12CC1C(n1cnc3c(NCc4cccc(Cl)c4)nc(C#CCCCCC(=O)NCCN)nc31)C(O)C2O (stereo not drawn) [Compound 38, (1′S,2′R,3′S,4′S,5′S)-4′-[6-(3-Chlorobenzylamino)-2-(6-(β-aminoethylaminocarbonyl)-1-hexynyl)-9-yl]-2′,3′-dihydroxybicyclo[3.1.0]hexane-1′-carboxylic acid N-methylamide]	(21 ± 6%)							0.0034 ± 0.0007	0.277 ± 0.033	
CNC(=O)C12CC1C(n1cnc3c(NCc4cccc(Cl)c4)nc(C#CCCC(=O)NCCN)nc31)C(O)C2O (stereo not drawn) [Compound 37, (1′S, 2′R, 3′S, 4′S, 5′S)-4′-[6-(3-Chlorobenzylamino) 2-(4-(β-aminoethylaminocarbonyl)-1-butynyl)-9-yl]-2′,3′-dihydroxybicyclo[3.1.0]hexane-1′-carboxylic acid N-methylamide]	(25 ± 12%)							0.0025 ± 0.0005	0.55 ± 0.083	Selectivity A1/A3 [6]: up to 1900
CNC(=O)C12CC1C(n1cnc3c(NCc4cccc(Cl)c4)nc(C#CCCC(=O)NCCNC(=O)CCCCC4SCC5NC(=O)NC54)nc31)C(O)C2O (stereo not drawn) [Compound 42, (1′S,2′R,3′S,4′S,5′S)-4′-[6-(3-Chlorobenzylamino)-2-(N-biotinyl(β-aminoethylaminocarbonyl)-1-butynyl)-9-yl]-2′,3′-dihydroxybicyclo[3.1.0]hexane-1′-carboxylic acid N-methylamide]	(13 ± 6%)							0.0364 ± 0.0056		
CNC(=O)C12CC1C(n1cnc3c(NCc4cccc(Cl)c4)nc(C#CCCC(=O)NCCNCCN)nc31)C(O)C2O (stereo not drawn) [Compound 41]	(14 ± 8%)							0.0154 ± 0.0044	0.89 ± 0.11	
CNC(=O)C12CC1C(n1cnc3c(NCC(c4ccccc4)c4ccccc4)nc(Cl)nc31)C(O)C2O (stereo not drawn) [Compound 18]				0.00683 ± 0.0015	0.00167 ± 9e-05		4.1			Ki [3]: 1.81 ± 0.581 µM
CNC(=O)C12CC1C(n1cnc3c(NCc4cccc(Cl)c4)nc(C#CCCC(=O)O)nc31)C(O)C2O (stereo not drawn) [Compound 33]								0.0611 ± 0.0358		Emax at 10 µM (human A3AR): 106 ± 17.7%
CNC(=O)C12CC1C(n1cnc3c(NCc4cccc(Cl)c4)nc(C#CCCCCC(=O)O)nc31)C(O)C2O (stereo not drawn) [Compound 34]	(5 ± 3%)							0.0124 ± 0.0018		
CNC(=O)C12CC1C(n1cnc3c(NCc4cccc(Cl)c4)nc(C#CCCCC(=O)NCCN)nc31)C(O)C2O (stereo not drawn) [Compound 8]		81	31	0.546 ± 0.062	0.0086 ± 0.00102	0.454 ± 0.044	64	0.00217 ± 0.00051		Selectivity A1/A3 [6]: 209
CNC(=O)C12CC1C(n1cnc3c(NCc4cccc(Cl)c4)nc(C#CCCC(=O)NCCCN)nc31)C(O)C2O (stereo not drawn) [Compound 39, (1′S, 2′R, 3′S, 4′S, 5′S)-4′-[6-(3-Chlorobenzylamino)-2-(4-(β-aminopropylaminocarbonyl)-1-butynyl)-9-yl]-2′,3′-dihydroxybicyclo[3.1.0]hexane-1′-carboxylic acid N-methylamide]	(16 ± 4%)							0.0031 ± 0.0004	0.979 ± 0.181	
CNC(=O)C12CC1C(n1cnc3c(NCc4cccc(Cl)c4)nc(C#CCCCC(=O)O)nc31)C(O)C2O (stereo not drawn) [Compound 7, (1′S,2′R,3′S,4′S,5′S)-4′-[6-(3-chlorobenzylamino)-2-(5-hydroxycarbonyl-1-pentynyl)-9-yl]-2′,3′-dihydroxybicyclo[3.1.0]hexane-1′-carboxylic acid N-methylamide]		43	8							
